How the values were obtained:
Type in all cases: cell-based
[1] = target: T1, 5-HT2A receptor (Homo sapiens, UniProt P28223); experiment: PathHunter β-Arrestin assay, agonist mode, 5-HT2A
Method: The PathHunter® β-Arrestin assay monitors the activation of a GPCR in a homogenous, non-imaging assay format using a technology developed by DiscoverX called Enzyme Fragment Complementation (EFC) with β-galactosidase (β-Gal) as the functional reporter. […] EA is fused to β-Arrestin and PK is fused to the GPCR of interest. When the GPCR is activated and β-Arrestin is recruited to the receptor, ED and EA complementation occurs, restoring β-Gal activity which is measured using chemiluminescent PathHunter® Detection Reagents. PathHunter cell lines (DiscoveRx Eurofins) were expanded from freezer stocks according to standard procedures. Cells were seeded in a total volume of 20 μL into white walled, 384-well microplates and incubated at 37° C. for the appropriate time prior to testing. For agonist determination, cells were incubated with sample to induce response. Intermediate dilution of sample stocks was performed to generate 5× sample in assay buffer. 5 μL of 5× sample was added to cells and incubated at 37° C. or room temperature for 90 to 180 minutes. Vehicle concentration was 1%. β-Arrestin assay signal was generated through a single addition of 12.5 or 15 μL (50% v/v) of PathHunter Detection reagent cocktail, followed by a one-hour incubation at room temperature. Microplates were read following signal generation with a PerkinElmer Envision™ instrument for chemiluminescent signal detection. Compound activity was analyzed using CBIS data analysis suite (ChemInnovation, CA). For agonist mode assays, percentage activity was calculated using the following formula:
% Activity=100%×(mean RLU of test sample−mean RLU of vehicle control)/(mean MAX control ligand−mean RLU of vehicle control).
In these studies, the MAX control ligand response was generated using 1-10 μM serotonin.

[2] = target: T2, 5-HT2C receptor (Homo sapiens, UniProt P28335); experiment: Calcium mobilization (Ca++ flux) assay, agonist mode, 5-HT2C
T2 sequence (P28335 33-458): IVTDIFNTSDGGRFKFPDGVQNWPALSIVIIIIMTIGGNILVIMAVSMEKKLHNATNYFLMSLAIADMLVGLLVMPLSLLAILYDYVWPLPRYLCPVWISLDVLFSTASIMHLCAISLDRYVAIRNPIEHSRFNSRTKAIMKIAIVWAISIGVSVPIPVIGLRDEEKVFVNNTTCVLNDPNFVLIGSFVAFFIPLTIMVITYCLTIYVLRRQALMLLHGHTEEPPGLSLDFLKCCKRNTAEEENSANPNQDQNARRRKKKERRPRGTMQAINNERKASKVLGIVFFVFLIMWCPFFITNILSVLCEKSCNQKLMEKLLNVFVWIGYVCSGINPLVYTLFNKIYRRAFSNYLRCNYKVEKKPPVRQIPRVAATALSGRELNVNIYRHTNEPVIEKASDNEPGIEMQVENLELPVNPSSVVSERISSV
Method: (§1) The Calcium No-Wash^PLUS assay monitors the activation of a GPCR via Gq secondary messenger signaling in a live cell, non-imaging assay format. Calcium mobilization in PathHunter® cell lines or other cell lines stably expressing Gq-coupled GPCRs is monitored using a calcium-sensitive dye that is loaded into cells. GPCR activation by a compound result in the release of calcium from intracellular stores and an increase in dye fluorescence that is measured in real-time. Cell lines expressing the GPCR of interest were expanded from freezer stocks according to standard procedures. Cells were seeded in a total volume of 20 μL into black-walled, clear-bottom, Poly-D-lysine coated 384-well microplates and incubated at 37° C. for the appropriate time prior to testing. Assays were performed in 1×Dye Loading Buffer consisting of 1× Dye, 1× Additive A and 2.5 mM Probenecid in HBSS/20 mM Hepes. Probenicid was prepared fresh. Cells were loaded with dye prior to testing. […] Compound agonist activity was measured on a FLIPR Tetra (MDS). Calcium mobilization was monitored for 2 minutes and 10 μL 4× sample in HBSS/20 mM Hepes was added to the cells 5 seconds into the assay. Compound activity data was analyzed using CBIS data analysis suite (ChemInnovation, CA). For agonist mode assays, percentage activity is calculated using the following formula: […]

[3] = target: T1, 5-HT2A receptor; experiment: Calcium mobilization (Ca++ flux) assay, agonist mode, 5-HT2A; conditions: for 5-HT2A receptor, Ca++ Flux % activation @30 μM: 30 μM compound, relative to MAX control 0.1 μM serotonin; for EC50: agonist mode, FLIPR calcium mobilization
Method: The Calcium No-Wash^PLUS assay monitors the activation of a GPCR via Gq secondary messenger signaling in a live cell, non-imaging assay format. Calcium mobilization in PathHunter® cell lines or other cell lines stably expressing Gq-coupled GPCRs is monitored using a calcium-sensitive dye that is loaded into cells. GPCR activation by a compound result in the release of calcium from intracellular stores and an increase in dye fluorescence that is measured in real-time. Cell lines expressing the GPCR of interest were expanded from freezer stocks according to standard procedures. Cells were seeded in a total volume of 20 μL into black-walled, clear-bottom, Poly-D-lysine coated 384-well microplates and incubated at 37° C. for the appropriate time prior to testing. Assays were performed in 1×Dye Loading Buffer consisting of 1× Dye, 1× Additive A and 2.5 mM Probenecid in HBSS/20 mM Hepes. Probenicid was prepared fresh. Cells were loaded with dye prior to testing. Media was aspirated from cells and replaced with 20 μL Dye Loading Buffer. Cells were incubated for 30-60 minutes at 37° C. For agonist determination, cells were incubated with sample to induce response. After dye loading, cells were removed from the incubator and 10 μL HBSS/20 mM Hepes was added. 3× vehicle was included in the buffer when performing agonist dose curves to define the EC80 for subsequent antagonist assays. Cells were incubated for 30 minutes at room temperature in the dark to equilibrate plate temperature. Intermediate dilution of sample stocks was performed to generate 4× sample in assay buffer. Compound agonist activity was measured on a FLIPR Tetra (MDS). Calcium mobilization was monitored for 2 minutes and 10 μL 4× sample in HBSS/20 mM Hepes was added to the cells 5 seconds into the assay. Compound activity data was analyzed using CBIS data analysis suite (ChemInnovation, CA). For agonist mode assays, percentage activity is calculated using the following formula:
% Activity=100%×(mean RFU of test sample−mean RFU of vehicle control)/(mean MAX RFU control ligand−mean RFU of vehicle control).
In these studies, the MAX RFU was generated by using 0.1 μM serotonin for the calcium mobilization assay.

[4] = target: 5-HT2B receptor (Homo sapiens, UniProt P41595); experiment: Calcium mobilization (Ca++ flux) assay, agonist mode, 5-HT2B
Method: as §1

T1 sequence (P28223 whole entry, the tested form may be a part): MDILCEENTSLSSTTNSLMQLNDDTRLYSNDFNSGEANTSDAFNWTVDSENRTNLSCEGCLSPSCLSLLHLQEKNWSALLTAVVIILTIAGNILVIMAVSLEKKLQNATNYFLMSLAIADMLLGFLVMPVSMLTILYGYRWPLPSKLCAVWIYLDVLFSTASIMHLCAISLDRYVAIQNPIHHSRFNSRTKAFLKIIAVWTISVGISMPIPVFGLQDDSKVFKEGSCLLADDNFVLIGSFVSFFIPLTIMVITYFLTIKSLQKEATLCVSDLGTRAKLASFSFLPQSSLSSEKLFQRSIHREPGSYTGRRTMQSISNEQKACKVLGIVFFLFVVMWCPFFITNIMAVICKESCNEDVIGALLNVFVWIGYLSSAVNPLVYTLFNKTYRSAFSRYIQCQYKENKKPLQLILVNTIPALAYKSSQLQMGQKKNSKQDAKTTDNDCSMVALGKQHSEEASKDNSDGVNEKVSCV
5-HT2B receptor, sequence (P41595 whole entry): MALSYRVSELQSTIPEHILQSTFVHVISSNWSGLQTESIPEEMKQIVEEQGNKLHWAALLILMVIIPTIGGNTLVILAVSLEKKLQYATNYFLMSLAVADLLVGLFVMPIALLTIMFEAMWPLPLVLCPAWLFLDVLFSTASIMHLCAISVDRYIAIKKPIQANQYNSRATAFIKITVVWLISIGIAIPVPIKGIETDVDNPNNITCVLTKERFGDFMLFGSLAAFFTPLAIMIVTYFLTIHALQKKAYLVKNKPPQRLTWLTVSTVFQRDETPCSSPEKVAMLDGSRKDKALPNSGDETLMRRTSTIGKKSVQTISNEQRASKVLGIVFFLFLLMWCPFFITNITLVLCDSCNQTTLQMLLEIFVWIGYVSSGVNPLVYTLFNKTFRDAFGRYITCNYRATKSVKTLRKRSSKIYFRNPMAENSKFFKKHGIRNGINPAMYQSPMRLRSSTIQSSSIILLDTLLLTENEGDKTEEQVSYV

For `COc1cc(S(C)(=N)=O)c(OC)cc1CCNCc1ccccc1OC` (stereo not shown) [Compound 5, (2,5-dimethoxy-4-(2-((2-methoxybenzyl)amino)ethyl)phenyl)(imino) (methyl)-λ^6-sulfanone], the EC50 [1] was 3.2 nM, the EC50 [2] was 3.6 nM and the “5-HT2A receptor, Ca++ Flux % activation @30 μM” value [3] was 111%. It also gave an EC50 [3] of 1.7 nM.

For `COc1cc(S(C)(=N)=O)c(OC)cc1CCNCc1ccccc1O` (stereo not shown) [Compound 6, (4-(2-((2-hydroxybenzyl)amino)ethyl)-2,5-dimethoxyphenyl)(imino)(methyl)-λ^6-sulfanone], the “5-HT2A receptor, Ca++ Flux % activation @30 μM” value [3] was “NA/ 82%”.

With `COc1cc(S(C)(=N)=O)c(OC)cc1CCNCc1cc(C)cc(Cl)n1` (stereo not shown) [Compound 4, (4-(2-(((6-chloro-4-methylpyridin-2-yl)methyl)amino)ethyl)-2,5-dimethoxyphenyl)(imino)(methyl)-λ^6-sulfanone] the “5-HT2A receptor, Ca++ Flux % activation @30 μM” value [3] was “NA/67%”.

With `COc1cc(S(C)(=N)=O)c(OC)cc1CCNCc1cc(C)cc(Cl)c1` (single isomer, unassigned) [Compound 2, (4-(2-((3-chloro-5-methylbenzyl)amino)ethyl)-2,5-dimethoxyphenyl)(imino)(methyl)-λ^6-sulfanone] the “5-HT2A receptor, Ca++ Flux % activation @30 μM” value [3] was “NA/57%”.

With `COc1cc(S(C)(=N)=O)c(OC)cc1CCNCc1cc(C)cc(Cl)c1` (stereo not shown) [Compound 1, (4-(2-((3-chloro-5-methylbenzyl)amino)ethyl)-2,5-dimethoxyphenyl)(imino)(methyl)-λ^6-sulfanone] the EC50 [1] was 25 nM, the EC50 [4] was greater than 1000 nM and the “5-HT2A receptor, Ca++ Flux % activation @30 μM” value [3] was 102%. It also gave an EC50 [3] of 4.1 nM.

`COc1cc(S(C)(=N)=O)c(OC)cc1CCNCc1cc(C)cc(Cl)c1` (single isomer, unassigned) [Compound 3, (4-(2-((3-chloro-5-methylbenzyl)amino)ethyl)-2,5-dimethoxyphenyl)(imino)(methyl)-λ^6-sulfanone] showed an EC50 [1] of 13.6 nM, an EC50 [2] of 1490 nM and an EC50 [4] greater than 1000 nM. For the same compound, the “5-HT2A receptor, Ca++ Flux % activation @30 μM” value [3] was 78% and the EC50 [3] was 2.4 nM.

— patent US20240366542A1, “S[…] SEROTONIN RECEPTORS” (ATAI Therapeutics, Inc., priority 2022, published 2024)
